These results are taken from ChEMBL document CHEMBL4715866, “A Chemical Probe for Dark Kinase STK17B Derives Its Potency and High Selectivity through a Unique P-Loop Conformation” (J Med Chem, 2020).

The target in series [1] is T1, Serine/threonine-protein kinase 17B (Homo sapiens, UniProt O94768).
T1 sequence (O94768 whole entry): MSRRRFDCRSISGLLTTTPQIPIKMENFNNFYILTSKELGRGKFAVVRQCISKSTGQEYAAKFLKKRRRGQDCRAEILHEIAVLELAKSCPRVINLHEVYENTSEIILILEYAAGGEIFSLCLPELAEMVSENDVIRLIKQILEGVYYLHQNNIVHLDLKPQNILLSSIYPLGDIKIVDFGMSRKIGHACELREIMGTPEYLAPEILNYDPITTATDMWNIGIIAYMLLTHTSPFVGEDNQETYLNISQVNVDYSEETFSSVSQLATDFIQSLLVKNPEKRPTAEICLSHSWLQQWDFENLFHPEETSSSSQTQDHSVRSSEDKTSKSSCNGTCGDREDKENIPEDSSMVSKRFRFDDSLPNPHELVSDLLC

The target of series [2] is T1, Serine/threonine-protein kinase 17B. Put plainly: Inhibition of N-terminal His-tagged STK17B kinase domain (25 to 329 residues) (unknown origin) expressed in Escherichia coli incubated for 90 mins by Kinase seeker split luciferase assay.
A short description of series [3]: Kinetic solubility in pH 7.4 PBS. The format is physicochemical. Conditions: read-out: Kinetic_solubility.
A short description of series [4]: Stability in mouse liver microsomes assessed as compound remaining at 0.1 mM in presence of NADPH regeneration system after 30 mins by LC-MS/MS analysis. The format is ADME, Microsome. To be noted: read-out: Stabilty. Background: Liver microsomes are vesicles of endoplasmic reticulum, rich in cytochrome P450 enzymes.
The target of series [5] is T2, Serine/threonine-protein kinase 17A (Homo sapiens, UniProt Q9UEE5).
T2 sequence (Q9UEE5 whole entry): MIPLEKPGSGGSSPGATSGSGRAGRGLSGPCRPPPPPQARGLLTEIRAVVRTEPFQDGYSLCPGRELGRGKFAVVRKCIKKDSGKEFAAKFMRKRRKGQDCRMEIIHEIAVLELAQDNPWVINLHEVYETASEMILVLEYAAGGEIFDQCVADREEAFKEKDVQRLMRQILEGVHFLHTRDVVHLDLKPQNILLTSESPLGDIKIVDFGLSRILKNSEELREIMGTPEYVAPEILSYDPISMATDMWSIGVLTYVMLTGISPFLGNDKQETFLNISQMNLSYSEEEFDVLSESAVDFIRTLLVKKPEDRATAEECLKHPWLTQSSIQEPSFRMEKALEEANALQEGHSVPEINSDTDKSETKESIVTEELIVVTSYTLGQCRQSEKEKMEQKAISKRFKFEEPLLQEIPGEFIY
In words: Binding affinity to STK17A (unknown origin) by KINOMEscan scanMAX assay.

Molecules are shown by their SMILES. In brackets after ≈: the same amount, converted by molar mass.

The compound `CCOC(=O)COc1ncnc2cc(-c3ccc(Cl)cc3)sc12` registered an IC50 in series [1] greater than 10000 nM.

With `COc1ccc(-c2cc3c(SCC(=O)O)ncnc3s2)cc1`, the IC50 in series [1] was greater than 10000 nM.

The compound `CSc1ccc(-c2cc3ncnc(SCC(N)=O)c3s2)cc1` showed an IC50 in series [1] greater than 10000 nM.

Regarding `O=C(O)CSc1ncnc2cc(-c3ccc(F)c(F)c3)sc12`, the IC50 in series [2] was 74 nM; in series [1], 820 nM. The solubility kinetic in series [3] is 65 µg/mL (≈ 192 µM). Further, the remaining at 0.5 h, 100 µM in series [4] was 95%.

In the case of `O=C(O)CSc1ncnc2cc(-c3ccc(Cl)c(Cl)c3)sc12`, the IC50 in series [2] came out at 92 nM; in series [1] it was 310 nM.

As for `CSc1ccc(-c2cc3ncnc(SCC(=O)O)c3s2)cc1F`, the figures for the IC50 in series [2] and in series [1] were 27 nM and 530 nM, respectively. Besides, the solubility kinetic in series [3] came to 52 µg/mL (≈ 142 µM). Besides, the remaining at 0.5 h, 100 µM in series [4] was 18%.

As to `CC(=O)c1ccc(-c2cc3ncnc(SCC(=O)O)c3s2)cc1`, the values for the half-inhibitory concentration (IC50) in series [2] and in series [1] were 13 nM and 1500 nM, respectively.

On to `O=C(O)CSc1ncnc2cc(-c3cccc(N4CCOCC4)c3)sc12`, for which the IC50 stood at 83 nM in series [2] and 2900 nM in series [1]. The solubility kinetic in series [3] is 54 µg/mL (≈ 139 µM). Besides, in series [4], the remaining at 0.5 h, 100 µM came to 73%.

Take `COc1ccc(-c2cc3ncnc(SCC(=O)O)c3s2)cc1F`: the IC50 in series [2] is 18 nM; in series [1], 700 nM. Also, in series [3], the solubility kinetic amounted to 49 µg/mL (≈ 140 µM). Also, in series [4], the remaining at 0.5 h, 100 µM was determined as 88%.

As to `CC(=O)Nc1cccc(-c2cc3ncnc(SCC(=O)O)c3s2)c1`, the half-maximal inhibitory concentration (IC50) in series [2] was 35 nM; in series [1] it was greater than 10000 nM.

`CSc1ccc(-c2cc3c(SCC(=O)O)ncnc3s2)cc1` showed a 50% inhibitory concentration (IC50) in series [1] greater than 10000 nM.

On to `CSc1ccc(-c2cc3ncnc(SCC(=O)O)c3s2)cc1`, for which the dissociation constant (Kd) in series [5] was determined as 230 nM. The concentration for half-maximal inhibition (IC50) in series [2] stood at 20 nM; in series [1] it was 210 nM. Besides, the solubility kinetic in series [3] is 42 µg/mL (≈ 121 µM). Moreover, in series [4], the remaining at 0.5 h, 100 µM was determined as 0%.

For `O=C(O)CSc1ncnc2cc(-c3ccc(N4CCOCC4)cc3)sc12`, the half-inhibitory concentration (IC50) was 14 nM in series [2] and 720 nM in series [1]. Besides, the solubility kinetic in series [3] turned out to be 61 µg/mL (≈ 157 µM). Moreover, in series [4], the remaining at 0.5 h, 100 µM worked out at 63%.

With `CSc1ccc(-c2cc3ncnc(NCC(=O)O)c3s2)cc1`, the IC50 in series [1] is greater than 10000 nM.

In series [1], `COc1cccc(-c2cc3c(SCC(=O)O)ncnc3s2)c1` showed an IC50 greater than 10000 nM.

Consider `O=C(O)CSc1ncnc2cc(-c3ccc(Cl)cc3)sc12`, for which the 50% inhibitory concentration (IC50) amounted to 39 nM in series [2] and 680 nM in series [1].

On to `CC(C)Sc1ccc(-c2cc3ncnc(SCC(=O)O)c3s2)cc1`, for which the concentration for half-maximal inhibition (IC50) in series [2] was 49 nM; in series [1], greater than 10000 nM.

Consider `O=C(O)CSc1ncnc2cc(-c3cccs3)sc12`, for which the IC50 in series [2] was 63 nM; in series [1], 650 nM. In series [3], the solubility kinetic was determined as 56 µg/mL (≈ 182 µM). In series [4], the remaining at 0.5 h, 100 µM turned out to be 47%.

On to `O=C(O)CSc1ncnc2cc(-c3ccc(C(F)(F)F)cc3)sc12`, for which the IC50 in series [2] turned out to be 33 nM; in series [1] it was 340 nM. In series [3], the solubility kinetic stood at 57 µg/mL (≈ 154 µM). In series [4], the remaining at 0.5 h, 100 µM was found to be 88%.

For `C=Cc1ccc(-c2cc3ncnc(SCC(=O)O)c3s2)cc1`, the IC50 in series [2] was 28 nM; in series [1], 120 nM. Further, the solubility kinetic in series [3] turned out to be 74 µg/mL (≈ 225 µM). Moreover, in series [4], the remaining at 0.5 h, 100 µM came to 38%.

As to `CCc1ccc(-c2cc3ncnc(SCC(=O)O)c3s2)cc1`, the figures for the IC50 in series [2] and in series [1] were 41 nM and 380 nM, respectively.

Regarding `COc1ccccc1-c1cc2c(SCC(=O)O)ncnc2s1`, the IC50 in series [2] is 880 nM; in series [1] it was greater than 10000 nM.

On to `CC(=O)c1ccc(-c2cc3ncnc(SCC(=O)O)c3s2)cn1`, for which the IC50 in series [2] is 37 nM; in series [1], greater than 10000 nM.

With `O=C(O)CSc1ncnc2cc(-c3cccc(F)c3)sc12`, the half-inhibitory concentration (IC50) was determined as 49 nM in series [2] and 980 nM in series [1].

Consider `O=C(O)CSc1ncnc2cc(-c3cccc(OC(F)(F)F)c3)sc12`, for which the 50% inhibitory concentration (IC50) in series [2] came to 280 nM; in series [1], 500 nM.

Take `CC(=O)Nc1ccc(-c2cc3ncnc(SCC(=O)O)c3s2)cc1`: the 50% inhibitory concentration (IC50) in series [2] was 23 nM; in series [1], greater than 10000 nM.

As for `CSc1cccc(-c2cc3c(SCC(=O)O)ncnc3s2)c1`, the IC50 in series [1] is greater than 10000 nM.

Turning to `O=C(O)CSc1ncnc2cc(-c3ccccc3F)sc12`, the values for the IC50 in series [2] and in series [1] were 60 nM and 1200 nM, respectively. Besides, the solubility kinetic in series [3] was 51 µg/mL (≈ 159 µM). For the same compound, the remaining at 0.5 h, 100 µM in series [4] was 45%.

`N#Cc1ccc(-c2cc3ncnc(SCC(=O)O)c3s2)cc1`: the IC50 in series [2] was determined as 35 nM; in series [1] it was 3200 nM.

`O=C(O)COc1ncnc2cc(-c3ccc(Cl)cc3)sc12`: the IC50 in series [1] is greater than 10000 nM.

`CCOC(=O)c1ccc(-c2cc3ncnc(SCC(=O)O)c3s2)cc1`: the figures for the IC50 in series [2] and in series [1] were 40 nM and 870 nM, respectively. Moreover, the solubility kinetic in series [3] came out at 59 µg/mL (≈ 158 µM). Further, in series [4], the remaining at 0.5 h, 100 µM is 0%.

As to `O=C(O)CSc1ncnc2cc(-c3ccc(C4CC4)cc3)sc12`, the half-inhibitory concentration (IC50) in series [2] is 62 nM; in series [1], 530 nM. Besides, the solubility kinetic in series [3] came to 55 µg/mL (≈ 161 µM). Moreover, in series [4], the remaining at 0.5 h, 100 µM amounted to 66%.

On to `CCOC(=O)CNc1ncnc2cc(-c3ccc(SC)cc3)sc12`, for which, in series [1], the concentration for half-maximal inhibition (IC50) was greater than 10000 nM.

`O=C(O)CSc1ncnc2cc(-c3ccc(OCc4ccccc4)cc3)sc12`: the results for the IC50 in series [2] and in series [1] were 110 nM and greater than 10000 nM, respectively.

With `CSc1cccc(-c2cc3ncnc(SCC(=O)O)c3s2)c1`, the 50% inhibitory concentration (IC50) in series [2] was determined as 49 nM; in series [1], 500 nM.

For `COc1ccccc1-c1cc2ncnc(SCC(=O)O)c2s1`, the results for the half-maximal inhibitory concentration (IC50) in series [2] and in series [1] were 110 nM and 1700 nM, respectively. The solubility kinetic in series [3] turned out to be 69 µg/mL (≈ 208 µM). Also, the remaining at 0.5 h, 100 µM in series [4] stood at 24%.

Consider `CC(C)c1ccc(-c2cc3ncnc(SCC(=O)O)c3s2)cc1`, for which the IC50 in series [2] was 59 nM; in series [1], 550 nM. For the same compound, the solubility kinetic in series [3] was determined as 23 µg/mL (≈ 66.8 µM). Moreover, the remaining at 0.5 h, 100 µM in series [4] amounted to 35%.

As to `O=C(O)CSc1ncnc2sc(-c3ccc(Cl)c(Cl)c3)cc12`, in series [1], the half-inhibitory concentration (IC50) was greater than 10000 nM.

Turning to `C[S+]([O-])c1ccc(-c2cc3ncnc(SCC(=O)O)c3s2)cc1` (configuration not stated), the IC50 in series [2] was 7 nM; in series [1] it was greater than 10000 nM.

The IC50 is the concentration needed to halve the response being measured. A higher IC50 goes with a need for much substance. In general, Kd refers to the equilibrium constant for the complex coming apart.
